Source: US10865203B2, “Ligands selective to alpha 6 subunit-containing GABAA receptors and their methods of use” (UWM Research Foundation, Inc., priority 2015, dated 2020)

What was measured:
mice, step-down latency = experiment: Sedation assessment; format: in vivo, mouse; conditions: 3 mg/kg i.p.
Protocol: The degree of sedation was measured by the latency for a mouse to completely step down from a slightly (3 cm) raised plastic platform (11×8 cm) by reference to a previous report (Horan et al. 1991). The mouse was placed on the platform 15 min after receiving i.p. Injection of the tested drug. The latency (in sec) for the mouse to step down the platform with all four paws was recorded. The baseline latency of each mouse before drug treatment was measured and, if longer than 15 sec, the mouse was discarded from the study. A cut-off time of 60 sec was taken as the maximal sedative effect. The percentage of sedation was calculated by the formula: sedation %=(test latency−baseline latency)/(60−baseline latency)×100%.

mice, elevated plus maze = experiment: Elevated plus maze (EPM) test; format: in vivo, mouse; conditions: 3 mg/kg or 10 mg/kg i.p., 10 min before the tests
Protocol: The epm test was conducted in a plexiglas maze apparatus (San Diego Instruments, San Diego, Calif.), consisting of a central platform (5×5 cm) with four arms (30×5 cm); two open and two closed arms with 25 cm-high sidewalls. The maze is elevated 38.5 cm from the room's floor. The mouse was placed at the central platform of the maze facing one of open arms and its behaviors in the maze were video-recorded and analyzed every 5 min-test session by the ethovision video tracking system (noldus information technology, wageningen, netherlands). The time spent for each mouse in the open or closed arm or the central platform as well as the distances traveled in the open or closed arm were measured. The degree of anxiety was accessed by the ratio of the time spent or the distance traveled in two open arms in a 5 min-test session.

α1,4,6β3δ receptors = target: T1, α1,4,6β3δ receptors (Rattus norvegicus, UniProt P30191+P63079); experiment: Electrophysiology in Xenopus oocytes, delta-containing receptors; format: cell-based; conditions: measured at EC20
T1 construct: expressed in transfected cells; host or cells: Xenopus laevis oocytes injected with subunit mRNA (3:1:5)
T1 sequence (P30191 20-453): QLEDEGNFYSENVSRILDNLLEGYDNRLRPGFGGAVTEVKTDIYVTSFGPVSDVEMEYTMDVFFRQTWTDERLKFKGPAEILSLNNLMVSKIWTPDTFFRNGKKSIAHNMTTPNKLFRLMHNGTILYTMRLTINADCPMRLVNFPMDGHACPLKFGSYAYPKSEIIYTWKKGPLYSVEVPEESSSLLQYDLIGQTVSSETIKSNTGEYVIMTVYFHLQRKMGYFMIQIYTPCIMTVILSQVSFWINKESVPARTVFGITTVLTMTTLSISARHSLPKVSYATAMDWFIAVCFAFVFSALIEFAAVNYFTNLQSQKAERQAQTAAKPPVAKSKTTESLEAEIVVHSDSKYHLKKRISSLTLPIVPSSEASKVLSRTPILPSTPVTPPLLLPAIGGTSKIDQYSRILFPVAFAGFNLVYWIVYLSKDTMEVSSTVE
T1 sequence (P63079 26-473): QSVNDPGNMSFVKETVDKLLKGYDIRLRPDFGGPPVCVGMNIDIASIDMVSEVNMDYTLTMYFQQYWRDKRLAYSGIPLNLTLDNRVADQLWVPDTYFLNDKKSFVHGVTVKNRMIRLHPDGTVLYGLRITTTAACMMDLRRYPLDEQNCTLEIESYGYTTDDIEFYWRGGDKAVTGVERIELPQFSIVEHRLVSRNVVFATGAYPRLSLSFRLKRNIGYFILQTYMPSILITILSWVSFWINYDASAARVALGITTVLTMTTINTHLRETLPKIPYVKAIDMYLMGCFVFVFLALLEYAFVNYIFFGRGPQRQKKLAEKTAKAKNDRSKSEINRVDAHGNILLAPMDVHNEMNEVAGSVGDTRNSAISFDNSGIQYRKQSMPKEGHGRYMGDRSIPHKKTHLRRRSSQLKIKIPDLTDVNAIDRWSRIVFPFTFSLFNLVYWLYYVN
T1 sequence (P18506 25-449 partner): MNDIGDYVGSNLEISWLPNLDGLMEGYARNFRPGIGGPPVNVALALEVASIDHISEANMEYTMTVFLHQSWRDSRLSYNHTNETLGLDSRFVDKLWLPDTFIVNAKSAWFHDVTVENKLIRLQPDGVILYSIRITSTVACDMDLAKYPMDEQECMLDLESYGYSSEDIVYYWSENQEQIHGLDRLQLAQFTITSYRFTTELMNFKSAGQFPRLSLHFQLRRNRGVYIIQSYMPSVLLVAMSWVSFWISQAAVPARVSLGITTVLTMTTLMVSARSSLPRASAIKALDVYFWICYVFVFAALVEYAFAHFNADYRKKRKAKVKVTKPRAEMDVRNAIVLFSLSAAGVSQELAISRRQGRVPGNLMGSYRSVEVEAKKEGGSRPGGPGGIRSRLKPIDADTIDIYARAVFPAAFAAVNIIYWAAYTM
Protocol: Mature female Xenopus laevis (Nasco, Fort Atkinson, Wis., USA) were anaesthetized in a bath of ice-cold 0.17% Tricain (Ethyl-m-aminobenzoat, Sigma-Aldrich, St. Louis, Mo., USA) before decapitation and transfer of the frog's ovary to ND96 medium (96 mM NaCl, 2 mM KCl, 1 mM MgCl2, 5 mM HEPES; pH 7.5). Following incubation in 1 mg/mL collagenase (Sigma-Aldrich, St. Louis, Mo., USA) for 30 min, stage 5 to 6 oocytes were singled out of the ovary and defolliculated using a platinum wire loop. Oocytes were stored and incubated at 18° C. in NDE medium (96 mM NaCl, 2 mM KCl, 1 mM MgCl2, 5 mM HEPES, 1.8 mM CaCl2; pH 7.5) that was supplemented with 100 U per mL-1 penicillin, 100 μg per mL-1 streptomycin and 2.5 mM pyruvate. Oocytes were injected with an aqueous solution of mRNA. A total of 2.5 ng of mRNA per oocyte was injected. Subunit ratio was 1:1:5 for αxβγ2 (x=1, 2, 3, 5) and 3:1:5 for α4/6β3γ2 and αβδ receptors. Injected oocytes were incubated for at least 36 h before electrophysiological recordings. Oocytes were placed on a nylon-grid in a bath of NDE medium. For current measurements, the oocytes were impaled with two microelectrodes (2-3MΩ), which were filled with 2 M KCl. The oocytes were constantly washed by a flow of 6 mL per min-1 NDE that could be switched to NDE containing GABA and/or drugs. […] All recordings were performed at room temperature at a holding potential of −60 mV using a Warner OC-725C TEV (Warner Instrument, Hamden, Conn., USA) or a Dagan CA-1B Oocyte Clamp or a Dagan TEV-200A TEV (Dagan Corporation, Mineapolis, Minn., USA). Data were digitized using a Digidata 1322A or 1550 data acquisition system (Axon Instruments, Union City, Calif., USA), recorded using Clampex 10.5 software (Molecular Devices, Sunnyvale, Calif., USA), and analyzed using Clampfit 10.5 and GraphPad Prism 6.0 (La Jolla, Calif., USA) software. Concentration-response data were fitted using the Hill equation. Data are given as mean±SEM from at least three oocytes of two batches.
For selected test compounds full dose response curves were recorded in α1-6β3γ2 receptors. For selected compounds, dose response curves in additional receptor subtypes (α1, 4, 6β3δ, α6β1, 2γ2, α1-6β3) were also obtained. For a wider panel of compounds, a two point screening pharmacology was obtained at 1 and 10 μM compound concentrations.

IoN-CCl Wistar rats [1] = experiment: IoN-CCl model, face grooming during body grooming; format: in vivo, rat; conditions: 10 mg/kg i.p. daily; 10 min of recording
Protocol: (§1) Chronic constriction injury (CCl) is a common neuropathic pain model. The unilateral ligature of the infraorbital nerve (IoN) in rats, as an animal model of peripheral neuropathic pain, and more specifically, trigeminal neuralgia and trigeminal neuropathy, was performed as described by Desuere and Hans (Deseure et al. J. Vis. Exp. 2015, 103, e53167). Wistar rats (46 in total) were randomly assigned to one of four experimental groups and then were behaviorally tested in a blinded manner. For studying the effects of subchronic treatment with the nanoemulsion formulation of DK-I-56-1 in IoN-CCl rats, DK-I-56-1 (10 mg/kg i.p.) or its vehicle (placebo nanoemulsion i.p.) were injected daily for 14 consecutive days after surgery. Sham-operated rats were treated in parallel. By a procedure slightly modified from Djordjevic et al. (Int. J. Pharm. 2015, 493, 40-54), biocompatible nanoemulsions were prepared by high pressure homogenization at 50° C. […] First, the response to the application of a graded series of three von Frey filaments onto ipsilateral vibrissal pad was measured on pre-operative days −3 and −1 and post-operative days 7, 14, 21, and 28. […] The other parameter, face grooming during body grooming, was manually assessed during 10 min of recording on pre-operative day −2 and post-operative days 2, 4, 8, and 15 (i.e. after 1, 3, 7, and 14 applications of treatment). […]

[2] = Rapid equilibrium dialysis assay, free fraction; format: in vitro ADME; conditions: rat, read-out: free fraction in rat blood
Text: Five pharmacokinetic studies have been performed; four in male Wistar rats and one in male Swiss mice.

IoN-CCl Wistar rats [3] = experiment: IoN-CCl neuropathic pain model, von Frey filaments; format: in vivo, rat
Protocol: as §1

COc1ccc(-n2nc3c4ccc(OC)cc4[nH]cc-3c2=O)cc1 [Compound 6, 7-Methoxy-2-(4-methoxyphenyl)-2,5-dihydro-3H-pyrazolo[4,3-c]quinolin-3-one]
sedation (mice, step-down latency): neither displayed any significant sedation
anxiolytic activity (mice, elevated plus maze): neither displayed any significant

[2H]C([2H])([2H])Oc1ccc2c3nn(-c4ccc(OC)nc4)c(=O)c-3c[nH]c2c1 [DK-I-86-1, 7-Methoxy-d3-2-(6-methoxypyridin-3-yl)-2,5-dihydro-3H-pyrazolo[4,3-c]quinolin-3-one]
Receptor potentiation in the α6β3δ receptor (α1,4,6β3δ receptors): modulated

[2H]C([2H])([2H])Oc1ccc(-n2nc3c4ccc(OC)cc4[nH]cc-3c2=O)cc1 [DK-I-56-1, 7-Methoxy-2-(4-methoxy-d3-phenyl)-2,5-dihydro-3H-pyrazolo[4,3-c]quinolin-3-one]
face grooming during body grooming (IoN-CCl Wistar rats [1]): lack of sedation-like or motor-impairing influences
fraction unbound [2]: < 0.005
anti-allodynic effect, response score to von Frey filaments, post-operative days 14 and 21 (IoN-CCl Wistar rats [3]; 10 mg/kg i.p. nanoemulsion daily for 14 days after surgery): statistically significant
anti-allodynic effect, post-operative day 28 (IoN-CCl Wistar rats [3]; 14 days after the last dose): disappeared
